Where two headings read alike, the source gives them in different places.
Assays:
Assay in all cases: SelectScreen Kinase Profiling, single point inhibition and IC50 for off-target kinases
Format in all cases: biochemical
[1] = target: T1, off-target kinases (Homo sapiens, UniProt O15146); conditions: MUSK, ZLYTE, ATP Km app
T1 sequence (O15146 24-869): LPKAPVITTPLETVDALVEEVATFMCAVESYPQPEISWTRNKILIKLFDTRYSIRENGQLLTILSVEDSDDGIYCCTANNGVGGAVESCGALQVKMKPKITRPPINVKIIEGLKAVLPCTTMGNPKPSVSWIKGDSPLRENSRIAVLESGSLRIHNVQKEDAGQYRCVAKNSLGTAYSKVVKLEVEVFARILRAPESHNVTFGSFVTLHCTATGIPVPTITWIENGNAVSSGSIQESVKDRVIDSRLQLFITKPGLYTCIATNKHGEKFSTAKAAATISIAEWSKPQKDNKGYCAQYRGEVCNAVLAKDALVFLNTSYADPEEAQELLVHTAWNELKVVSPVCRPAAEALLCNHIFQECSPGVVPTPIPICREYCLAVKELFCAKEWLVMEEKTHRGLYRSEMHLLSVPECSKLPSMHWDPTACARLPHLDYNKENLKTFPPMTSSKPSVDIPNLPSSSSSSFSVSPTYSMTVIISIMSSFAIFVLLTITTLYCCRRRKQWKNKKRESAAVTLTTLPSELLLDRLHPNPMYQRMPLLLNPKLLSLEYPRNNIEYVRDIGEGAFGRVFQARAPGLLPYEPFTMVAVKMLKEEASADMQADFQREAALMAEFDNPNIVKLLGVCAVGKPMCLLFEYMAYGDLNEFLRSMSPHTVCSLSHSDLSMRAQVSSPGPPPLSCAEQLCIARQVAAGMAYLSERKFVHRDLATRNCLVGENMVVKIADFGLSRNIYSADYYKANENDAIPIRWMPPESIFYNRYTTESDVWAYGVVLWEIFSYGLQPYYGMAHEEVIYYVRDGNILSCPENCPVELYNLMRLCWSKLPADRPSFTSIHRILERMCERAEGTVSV

[2] = target: T2, off-target kinases (Homo sapiens, UniProt P46734); conditions: MAP2K3 (MEK3), LanthaScreen Binding
T2 sequence (P46734 1-347): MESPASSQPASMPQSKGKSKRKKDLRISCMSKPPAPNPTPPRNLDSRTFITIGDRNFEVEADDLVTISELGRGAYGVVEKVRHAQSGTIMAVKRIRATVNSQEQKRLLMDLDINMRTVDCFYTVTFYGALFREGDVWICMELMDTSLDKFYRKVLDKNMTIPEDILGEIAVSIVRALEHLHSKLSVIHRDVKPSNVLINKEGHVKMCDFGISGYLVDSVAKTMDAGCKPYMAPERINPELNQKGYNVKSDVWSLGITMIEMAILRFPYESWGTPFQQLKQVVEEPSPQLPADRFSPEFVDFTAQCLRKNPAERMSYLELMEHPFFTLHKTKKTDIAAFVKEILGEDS

[3] = target: off-target kinases (Homo sapiens, UniProt P54756); conditions: EPHA5, ZLYTE, ATP Km app
[4] = target: off-target kinases (Homo sapiens, UniProt Q9UM73, C1156Y); conditions: ALK C1156Y (mutant), LanthaScreen Binding
[5] = target: off-target kinases (Homo sapiens, UniProt Q9Y243); conditions: AKT3 (PKB gamma), ZLYTE, ATP Km app
Sequence of off-target kinases (Homo sapiens, UniProt Q9Y243) (Q9Y243 whole entry): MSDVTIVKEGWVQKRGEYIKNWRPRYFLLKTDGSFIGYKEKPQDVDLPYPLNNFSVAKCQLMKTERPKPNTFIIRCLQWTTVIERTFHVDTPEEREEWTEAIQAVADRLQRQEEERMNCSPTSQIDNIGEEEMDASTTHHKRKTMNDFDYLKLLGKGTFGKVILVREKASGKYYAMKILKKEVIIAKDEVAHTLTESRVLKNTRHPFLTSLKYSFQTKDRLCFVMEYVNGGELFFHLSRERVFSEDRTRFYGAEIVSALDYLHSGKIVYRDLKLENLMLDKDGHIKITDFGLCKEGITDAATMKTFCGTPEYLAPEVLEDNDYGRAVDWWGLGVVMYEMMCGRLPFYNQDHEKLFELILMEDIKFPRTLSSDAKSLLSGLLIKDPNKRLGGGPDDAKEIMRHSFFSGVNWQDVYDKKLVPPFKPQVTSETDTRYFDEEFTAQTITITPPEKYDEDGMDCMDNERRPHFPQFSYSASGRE

Sequence of off-target kinases (Homo sapiens, UniProt P54756) (P54756 25-1037): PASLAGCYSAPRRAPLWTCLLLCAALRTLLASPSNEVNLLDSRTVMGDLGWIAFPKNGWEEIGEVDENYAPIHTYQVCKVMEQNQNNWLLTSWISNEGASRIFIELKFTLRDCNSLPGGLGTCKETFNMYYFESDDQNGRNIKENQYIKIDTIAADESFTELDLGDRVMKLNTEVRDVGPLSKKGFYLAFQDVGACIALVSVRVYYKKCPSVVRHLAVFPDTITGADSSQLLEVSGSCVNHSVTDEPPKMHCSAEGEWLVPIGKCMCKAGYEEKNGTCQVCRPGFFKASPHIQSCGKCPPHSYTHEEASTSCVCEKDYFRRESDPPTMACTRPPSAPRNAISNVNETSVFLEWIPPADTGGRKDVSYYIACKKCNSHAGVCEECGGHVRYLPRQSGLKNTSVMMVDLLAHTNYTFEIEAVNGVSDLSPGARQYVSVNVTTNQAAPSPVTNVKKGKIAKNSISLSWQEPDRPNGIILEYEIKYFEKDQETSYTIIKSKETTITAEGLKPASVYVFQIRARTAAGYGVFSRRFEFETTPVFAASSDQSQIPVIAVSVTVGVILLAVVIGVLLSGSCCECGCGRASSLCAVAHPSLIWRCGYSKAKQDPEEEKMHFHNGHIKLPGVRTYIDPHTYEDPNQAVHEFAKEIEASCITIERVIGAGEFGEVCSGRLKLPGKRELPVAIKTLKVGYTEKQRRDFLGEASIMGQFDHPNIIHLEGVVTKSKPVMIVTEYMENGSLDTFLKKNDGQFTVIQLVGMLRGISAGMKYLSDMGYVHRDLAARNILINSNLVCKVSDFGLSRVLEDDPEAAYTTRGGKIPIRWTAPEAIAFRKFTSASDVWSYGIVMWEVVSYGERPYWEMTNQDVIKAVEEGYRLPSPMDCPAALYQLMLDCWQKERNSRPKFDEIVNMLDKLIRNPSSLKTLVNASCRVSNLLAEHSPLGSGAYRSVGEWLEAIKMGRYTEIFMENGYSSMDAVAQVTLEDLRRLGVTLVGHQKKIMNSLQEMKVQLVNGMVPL
Sequence of off-target kinases (Homo sapiens, UniProt Q9UM73, C1156Y) (Q9UM73 19-1620 C1156Y): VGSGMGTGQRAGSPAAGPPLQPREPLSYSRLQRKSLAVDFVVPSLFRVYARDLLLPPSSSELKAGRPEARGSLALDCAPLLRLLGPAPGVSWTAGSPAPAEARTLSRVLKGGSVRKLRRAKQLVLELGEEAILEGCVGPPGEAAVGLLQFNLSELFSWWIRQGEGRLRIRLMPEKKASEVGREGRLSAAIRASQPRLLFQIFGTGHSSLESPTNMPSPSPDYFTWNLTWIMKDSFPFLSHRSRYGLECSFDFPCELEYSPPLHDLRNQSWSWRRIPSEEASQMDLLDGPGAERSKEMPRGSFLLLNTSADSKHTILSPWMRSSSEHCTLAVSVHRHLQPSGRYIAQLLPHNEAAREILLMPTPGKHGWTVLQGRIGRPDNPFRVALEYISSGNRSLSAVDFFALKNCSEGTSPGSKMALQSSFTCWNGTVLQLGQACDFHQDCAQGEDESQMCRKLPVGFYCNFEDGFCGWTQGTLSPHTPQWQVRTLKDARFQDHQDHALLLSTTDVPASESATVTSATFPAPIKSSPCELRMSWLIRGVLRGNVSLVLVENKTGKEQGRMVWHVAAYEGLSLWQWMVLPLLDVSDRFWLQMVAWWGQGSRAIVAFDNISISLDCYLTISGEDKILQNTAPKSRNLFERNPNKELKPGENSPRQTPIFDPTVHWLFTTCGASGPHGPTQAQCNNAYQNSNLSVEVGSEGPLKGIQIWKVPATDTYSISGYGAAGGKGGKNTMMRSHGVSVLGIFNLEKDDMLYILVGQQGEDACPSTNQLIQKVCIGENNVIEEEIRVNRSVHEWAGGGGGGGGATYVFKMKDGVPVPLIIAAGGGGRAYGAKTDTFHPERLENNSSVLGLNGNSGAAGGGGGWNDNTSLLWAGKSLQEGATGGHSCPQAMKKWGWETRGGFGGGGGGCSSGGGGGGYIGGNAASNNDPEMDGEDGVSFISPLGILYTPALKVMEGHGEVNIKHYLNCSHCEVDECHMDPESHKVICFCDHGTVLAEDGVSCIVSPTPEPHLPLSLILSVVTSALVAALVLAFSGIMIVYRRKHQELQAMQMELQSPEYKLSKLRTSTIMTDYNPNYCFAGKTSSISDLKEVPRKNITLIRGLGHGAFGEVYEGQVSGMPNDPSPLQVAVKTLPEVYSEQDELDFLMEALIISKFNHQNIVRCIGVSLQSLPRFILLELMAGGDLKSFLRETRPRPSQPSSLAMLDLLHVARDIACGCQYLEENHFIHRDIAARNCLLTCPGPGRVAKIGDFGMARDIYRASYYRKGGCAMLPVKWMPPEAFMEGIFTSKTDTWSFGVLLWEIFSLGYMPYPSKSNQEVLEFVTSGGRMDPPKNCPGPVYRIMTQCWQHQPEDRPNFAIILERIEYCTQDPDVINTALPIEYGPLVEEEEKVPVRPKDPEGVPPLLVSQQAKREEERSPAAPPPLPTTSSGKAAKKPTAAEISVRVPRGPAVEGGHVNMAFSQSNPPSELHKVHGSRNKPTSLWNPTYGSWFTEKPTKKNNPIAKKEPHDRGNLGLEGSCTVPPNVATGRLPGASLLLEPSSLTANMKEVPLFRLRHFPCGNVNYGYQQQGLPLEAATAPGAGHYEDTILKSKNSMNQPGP

SMILES: N#Cc1cc(-c2ncnc(Nc3ccc(N4CCN(C5COC5)CC4)cc3)n2)ccc1OC1CCOCC1 [Compound 1, 5-(4-((4-(4-(oxetan-3-yl)piperazin-1-yl)phenyl)amino)-1,3,5-triazin-2-yl)-2-((tetrahydro-2H-pyran-4-yl)oxy)benzonitrile]
- inhibition ([1]; read-out: % Inhibition 1): 15%
- inhibition ([1]; read-out: % Inhibition 2): 8%
- inhibition ([1]; read-out: % Inhibition Avg): 12%
- inhibition ([2]; read-out: % Inhibition 1): 5%
- inhibition ([2]; read-out: % Inhibition 2): 8%
- inhibition ([2]; read-out: % Inhibition Avg): 7%
- inhibition ([3]; read-out: % Inhibition 1): 3%
- inhibition ([3]; read-out: % Inhibition 2): 4%
- inhibition ([3]; read-out: % Inhibition Avg): 3%
- inhibition ([4]; read-out: % Inhibition 1): 7%
- inhibition ([4]; read-out: % Inhibition 2): 12%
- inhibition ([4]; read-out: % Inhibition Avg): 9%
- inhibition ([5]; read-out: % Inhibition 1): 3%
- inhibition ([5]; read-out: % Inhibition 2): 1%
- inhibition ([5]; read-out: % Inhibition Avg): 2%

Reference: US11572590B2, “Methods for evaluating tumor cell spheroids using 3D microfluidic cell culture device” (Dana-Farber Cancer Institute, Inc., priority 2017, dated 2023)
